This note sets out measurements from US10844049B2, “GLP-1R agonists and uses thereof” (QILU REGOR THERAPEUTICS INC., priority 2018, dated 2020).

The term EC50 denotes the concentration that produces a half-maximal response.

Sequence of GLP1R (P43220 24-463): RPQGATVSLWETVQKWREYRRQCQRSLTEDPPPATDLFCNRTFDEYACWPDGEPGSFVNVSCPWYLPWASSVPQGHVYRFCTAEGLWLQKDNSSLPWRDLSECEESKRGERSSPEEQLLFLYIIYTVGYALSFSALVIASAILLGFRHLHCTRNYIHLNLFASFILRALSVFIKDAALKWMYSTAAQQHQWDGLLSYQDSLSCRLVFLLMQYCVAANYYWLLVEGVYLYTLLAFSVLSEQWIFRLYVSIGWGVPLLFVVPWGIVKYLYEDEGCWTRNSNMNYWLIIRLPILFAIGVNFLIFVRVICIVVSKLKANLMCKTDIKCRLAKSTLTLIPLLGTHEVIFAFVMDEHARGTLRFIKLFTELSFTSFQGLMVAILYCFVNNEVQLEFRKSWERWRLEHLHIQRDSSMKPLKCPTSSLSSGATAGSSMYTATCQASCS

This experiment has as its target GLP1R (Homo sapiens, UniProt P43220). The experiment in a line: GLP1R cAMP HTRF assay, HEK293/GLP-1R/CRE/Luc (HEK293T cells). The format is cell-based. The conditions noted are these: read-out: EC50. The essentials: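 cAMP accumulation via HTRF after 30 min, 37 °C exposure of 1000 receptor-expressing cells/well to compound (0.5% DMSO final) in IBMX (500 μM)/0.1% BSA DPBS.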
With `O=C(O)c1ccc2nc(CN3CCC(F)(c4cccc(OCc5ccc(Cl)cc5F)n4)CC3)n(C[C@@H]3CCO3)c2c1` [Compound 67, (S)-2-((4-(6-(4-chloro-2-fluorobenzyloxy)pyridin-2-yl)-4-fluoropiperidin-1-yl)methyl)-1-(oxetan-2-ylmethyl)-1H-benzo[d]imidazole-6-carboxylic acid], the EC50 is not above 150 nM. Consider `C#Cc1ccc(COc2cccc(C3=CCN(Cc4nc5ccc(C(=O)O)cc5n4C[C@@H]4CCO4)CC3)n2)c(F)c1` [Compound 68, (S)-2-((6-((4-ethynyl-2-fluorobenzyl)oxy)-3‘f’-dihydro-[2,4′-bipyridin]-1′(2′H)-yl)methyl)-1-(oxetan-2-ylmethyl)-1H-benzo[d]imidazole-6-carboxylic acid], for which the EC50 was not above 15 nM. Regarding `O=C(O)c1ccc2nc(CN3CC=C(c4cccc(OC5CCOc6cc(Cl)ccc65)n4)CC3)n(C[C@@H]3CCO3)c2c1` (stereo partly drawn) [Compound 69, 2-((6-((7-chlorochroman-4-yl)oxy)-5′,6′-dihydro-[2,4′-bipyridin]-1′(2′H)-yl)methyl)-1-((S)-oxetan-2-ylmethyl)-1H-benzo[d]imidazole-6-carboxylic add], the EC50 is not above 1000 nM. Take `CC(Oc1cccc(C2=CCN(Cc3nc4ccc(C(=O)O)cc4n3C[C@@H]3CCO3)CC2)n1)c1ccc(Cl)cc1F` (stereo partly drawn) [Compound 70]: the EC50 was not above 15 nM. As to `N#Cc1ccc2nc(CN3CC=C(c4cccc(OCc5ccc(Cl)cc5F)n4)CC3)n(C[C@@H]3CCO3)c2c1` [Compound 71, (S)-2-((4-(6-(4-chloro-2-fluorobenzyloxy)pyridin-2-yl)-5,6-dihydropyridin-1(2H)-yl)methyl)-1-(oxetan-2-ylmethyl)-1H-benzo[d]imidazole-6-carbonitrile], the EC50 was more than 1000 nM. Turning to `O=C(O)c1ccc2nc(CN3CC=C(c4cccc(OCc5ccc(Cl)cc5F)n4)CC3)n(Cc3ncco3)c2c1` [Compound 72, 2-((6-((4-chloro-2-fluorobenzyl)oxy)-3′,6′-dihydro-[2,4′-bipyridin]-1′(2′H)-yl)methyl)-1-(oxazol-2-ylmethyl)-1H-benzo[d]imidazole-6-carboxyli acid], the EC50 is not above 15 nM. The figure for `O=C(O)c1ccc2nc(CN3CC=C(c4cccc(OCc5ccccc5)n4)CC3)n(C[C@@H]3CCO3)c2c1` [Compound 73, (S)-2-((6-(benzyloxy)-5′,6′-dihydro-[2,4′-bipyridin]-1′(2′H)-yl)methyl)-1-(oxetan-2-ylmethyl)-1H-benzo[d]imidazole-6-carboxylic add] is not above 150 nM. As to `O=C(O)c1ccc2nc(CN3CC=C(c4cc5cn[nH]c5c(OCc5ccc(Cl)cc5F)n4)CC3)n(C[C@@H]3CCO3)c2c1` [Compound 103, (S)-2-((4-(7-((4-chloro-2-fluorobenzyl)oxy)-1H-pyrazolo[3H-c]pyridin-5-yl)-3,6-dihydropyridin-1(2H)-yl)methyl)-1-(oxetan-2-ylmethyl)-1H-benzo[d]imidazole-6-carboxylic add], the EC50 is not above 150 nM. The figure for `O=C(O)c1ccc2nc(CN3CC=C(c4cccc(NC5CCCc6cc(Cl)ccc65)n4)CC3)n(C[C@@H]3CCO3)c2c1` (stereo partly drawn) [Compound 104, 2-((6-((6-chloro-1,2,3,4-tetrahydronaphthalen-1-yl)amino)-36′-dihydro-[2,4′-bipyridin]-1′(2′H)-yl)methyl)-1-(((S)-oxetan-2-yl)methyl)-1H-benzo[d]imidazole-6-carboxylic add] is not above 1000 nM. On to `O=C(O)c1ccc2nc(CN3CCN(c4cccc(OCc5ccc(Cl)cc5F)n4)CC3=O)n(C[C@@H]3CCO3)c2c1` [Compound 106, (S)-2-((4-(6-((4-chloro-2-fluorobenzyl)oxy)pyridin-2-yl)-2-oxopiperazin-1-yl)methyl)-1-(oxetan-2-ylmethyl)-1H-benzo[d]imidazole-6-carboxylic add], for which the EC50 is not above 15 nM.

`CC#Cc1ccc(COc2cccc(C3=CCN(Cc4nc5ccc(C(=O)O)cc5n4C[C@@H]4CCO4)CC3)n2)c(F)c1` [Compound 107, (S)-2-((6-((2-fluoro-4-(prop-1-yn-1-yl)benzyl)oxy)-3′,6′-dihydro-[2,4′-pyridin]-1′(2′H)-yl)methyl)-1-(oxetan-2-ylmethyl)-1H-benzo[d]imidazole-6-carboxylic acid]: the EC50 is not above 15 nM. In the case of `O=C(O)c1ccc2nc(CN3CC=C(c4cccc(OCc5ccc(C#CC6CC6)cc5F)n4)CC3)n(C[C@@H]3CCO3)c2c1` [Compound 108, (S)-2-((6-((4-(cyclopropylethynyl)-2-fluorobenzyl)oxy)-3′,6′-dihydro-[2,4′-bipyridin]-1′(2′H)-yl)methyl)-1-(oxetan-2-ylmethyl)-1H-benzo[d]imidazole-6-carboxylic acid], the EC50 is not above 15 nM. As for `O=C(O)c1ccc2nc(CN3CC=C(c4cc(-c5ccccc5)cc(OCc5ccc(Cl)cc5F)n4)CC3)n(C[C@@H]3CCO3)c2c1` [Compound 109], the EC50 is not above 1000 nM. Turning to `Cc1c(C(=O)O)ccc2nc(CN3CC=C(c4cccc(OCc5ccc(Cl)cc5)n4)CC3)n(C[C@@H]3CCO3)c12` [Compound 110, (S)-2-((6-((4-chlorobenzyl)oxy)-3′,6′-dihydro-[2,4′-bipyridin]-1′(2′H)-yl)methyl)-7-methyl-1-(oxetan-2-ylmethyl)-1H-benzo[d]imidazole-6-carboxylic add], the EC50 is not above 15 nM.

With `Cc1cc2nc(CN3CC=C(c4cccc(OCc5ccc(Cl)cc5)n4)CC3)n(C[C@@H]3CCO3)c2cc1C(=O)O` [Compound 111, (S)-2-((4-(6-(4-chlorobenzyloxy)pyridin-2-yl)-5,6-dihydropyridin-1(2H)-yl)methyl)-5-methyl-1-(oxetan-2-ylmethyl)-1H-benzo[d]imidazole-6-carboxylic acid], the EC50 is not above 15 nM. `CC(c1ncco1)n1c(CN2CC=C(c3cccc(OCc4ccc(Cl)cc4F)n3)CC2)nc2ccc(C(=O)O)cc21` (stereo not drawn) [Compound 112, 2-((6-((4-chloro-2-fluorobenzyl)oxy)-3′,6′-dihydro-[2,4′-bipyridin]-1′(2′H)-yl)methyl)-1-(1-(oxazol-2-yl)ethyl)-1H-benzo[d]imidazole-6-carboxylic acid]: the EC50 is not above 1000 nM. `O=C(O)c1ccc2nc(CN3CC=C(c4cccc(CCc5ccc(Cl)cc5F)n4)CC3)n(C[C@@H]3CCO3)c2c1` [Compound 113, (S)-2-((6-(4-chloro-2-fluorophenethyl)-3′,6′-dihydro-[2,4′-bipyridin]-1′(2′H)-yl)methyl)-1-(oxetan-2-ylmethyl)-1H-benzo[d]imidazole-6-carboxylic acid]: the EC50 was not above 150 nM. For the compound `O=C(O)c1ccc2nc(CN3CC=C(c4cccc(OCc5ccc(Cl)cc5Cl)n4)CC3)n(C[C@@H]3CCO3)c2c1` [Compound 114, (S)-2-((6-((2,4-dichlorobenzyl)oxy)-3′,6′-dihydro-[2,4′-bipyridin]-1′(2′H)-yl)methyl)-1-(oxetan-2-ylmethyl)-1H-benzo[d]imidazole-6-carboxylic add], the EC50 was not above 15 nM. `O=C(O)c1ccc2nc(CN3CC=C(c4cccc(OCc5ccc(Cl)c(Cl)c5)n4)CC3)n(C[C@@H]3CCO3)c2c1` [Compound 115, (S)-2-((6-((3,4-dichlorobenzyl)oxy)-3′,6′-dihydro[2,4′-bipyridin]-1′(2′H)-yl)methyl)-1-(oxetan-2-ylmethyl)-1H-benzo[d]imidazole-6-carboxylic add]: the EC50 is not above 15 nM.

As to `O=C(O)c1ccc2nc(CN3CC=C(c4cccc(OCc5ccc(Cl)cn5)n4)CC3)n(C[C@@H]3CCO3)c2c1` [Compound 116, (S)-2-((6-((5-chloropyridin-2-yl)methoxy)-3′,6′-dihydro-[2H′-bipyridin]-1′(2′H)-yl)methyl)-1-(oxetan-2-ylmethyl)-1H-benzo[d]imidazole-6-carboxylic add], the EC50 was not above 15 nM.

On to `COc1ccc(COc2cccc(C3=CCN(Cc4nc5ccc(C(=O)O)cc5n4C[C@@H]4CCO4)CC3)n2)nc1` [Compound 117, (S)-2-((6-((5-methoxypyridin-2-yl)methoxy)-3′,6′-dihydro-[2,4′-bipyridin]-1′(2′H)-yl)methyl)-1-(oxetan-2-ylmethyl)-1H-benzo[d]imidazole-6-carboxylic add], for which the EC50 is not above 15 nM. To `COc1ccc(COc2cccc(C3=CCN(Cc4nc5ccc(C(=O)O)cc5n4C[C@@H]4CCO4)CC3)n2)cc1` [Compound 118, (S)-2-((6-((4-methoxybenzyl)oxy)-3′,6′-dihydro-[2,4′-bipyridin]-1′(2H)-yl)methyl)-1-(oxetan-2-ylmethyl)-1H-benzo[d]imidazole-6-carboxylic acid] belongs not above 15 nM; to `COc1ccc(COc2cccc(C3=CCN(Cc4nc5ccc(C(=O)O)cc5n4C[C@@H]4CCO4)CC3)n2)cn1` [Compound 119, (S)-2-((6-((6-methoxypyridin-3-yl)methoxy)-3′,6′-dihydro-[2,4′-bipyridin]-1(2′H)-yl)methyl)-1-(oxetan-2-ylmethyl)-1H-benzo[d]imidazole-6-carboxylic acid], not above 15 nM; to `O=C(O)c1ccc2nc(CN3CC=C(c4cccc(OCc5ccc(OC(F)(F)F)cc5)n4)CC3)n(C[C@@H]3CCO3)c2c1` [Compound 120, (S)-1-(oxetan-2-ylmethyl)-2-((6-((4-(trifluoromethoxy)benzyl)oxy)-3′,6′-dihydro-[2,4′-bipyridin]-1′(2′H)-yl)methyl)-1H-benzo[d]imidazole-6-carboxylic acid], not above 15 nM. `O=C(O)c1ccc2nc(CN3CC=C(c4cccc(OCc5ccc(OC(F)(F)F)nc5)n4)CC3)n(C[C@@H]3CCO3)c2c1` [Compound 121, (S)-1-(oxetan-2-ylmethyl)-2-((6-((6-(trifluoromethoxy)pyridin-3-yl)methoxy)-3′,6′-dihydro-[2,4′-bipyridin]-1′(2′H)-yl)methyl)-1H-benzo[d]imidazole-6-carboxylic acid]: the EC50 was not above 150 nM. Take `O=C(O)c1ccc2nc(CN3CC=C(c4ncc(F)c(NCc5ccc(Cl)cc5F)n4)CC3)n(C[C@@H]3CCO3)c2c1` [Compound 122, (S)-2-((4-(4-(4-chloro-2-fluorobenzylamino)-5-fluoropyrimidin-2-yl)-5,6-dihydropyridin-1(2H)-yl)methyl)-1-(oxetan-2-ylmethyl)-1H-benzo[d]imidazole-6-carboxylic acid]: the EC50 was not above 150 nM. To `O=C(O)c1ccc2nc(CN3CC=C(c4ncc(F)c(OCc5ccc(Cl)cc5F)n4)CC3)n(C[C@@H]3CCO3)c2c1` [Compound 123] belongs not above 15 nM.
